# Measurements from patent EP4596547A1, “HETEROCYCLIC COMPOUND AND HARMFUL ARTHROPOD-CONTROLLING COMPOSITION CONTAINING SAME” (priority 2022, dated 2024).
# How the values were obtained:
# Format in all cases: in vivo
# [1] = test system: cotton aphids (Aphis gossypii); experiment: Test method 1: foliar spray on cucumber seedlings inoculated with cotton aphids (formulation per Formulation Example 1); parameters: mortality: concentration or dose not given beside the values; settings: 120 h, sprayed 10 mL/seedling one day after inoculation, surviving insects examined after 5 days, 25°C, read-out: control value
# [2] = test system: diamondback moth (Plutella xylostella); experiment: Test method 10: sprayed cabbage seedling, third instar larvae of diamondback moth released; settings: 144 h, sprayed 20 mL/seedling, 10 third instar larvae, after 6 days, 25°C
# Description: A test compound is formed into a formulation according to the method described in Formulation Example 5, and water containing 0.03% by volume of Shindain (registered trademark) is added thereto to prepare a diluted solution containing the test compound at a predetermined concentration.
# (§1) A cabbage (Brassicae oleracea) seedling (3 to 4 true leaf stage) planted in a container is sprayed with the diluted solution at a rate of 20 mL/seedling. Thereafter, 10 third instar larvae of diamondback moth (Plutella xylostella) are released. After 6 days, the number of surviving insects is counted, and the mortality is determined from the following equation. [formula]
# [3] = test system: cotton aphids (Aphis gossypii); experiment: Test method 11: foliar spray on cucumber seedlings inoculated with cotton aphids (formulation per Formulation Example 5); settings: 120 h, sprayed 10 mL/seedling one day after inoculation, after 5 days, 25°C, read-out: control value
# [4] = test system: diamondback moth (Plutella xylostella); experiment: Test method 4: sprayed cabbage foliage cut out, second instar larvae of diamondback moth released; settings: foliar, 120 h, sprayed 20 mL/seedling, five second instar larvae, after 5 days, 25°C
# Description: (§2) A test compound is formed into a formulation according to the method described in Formulation Example 1, and water containing 0.03% by volume of Shindain (registered trademark) is added thereto to prepare a diluted solution containing the test compound at a predetermined concentration.
# as §1, with “(2” for “(3”, “3” for “4”, “the foliage portion of the seedling is cut out and placed in a container on which filter paper is laid. Thereto are released five second” for “10 third”, “xylostella).” for “xylostella) are released.”, “5” for “6”
# [5] = test system: Culex pipiens pallens; experiment: Test method 12: last-instar larvae of Culex pipiens pallens released into diluted solution; settings: 24 h, 30 last-instar larvae, one day later, 25°C
# Description: The test compound is formulated according to the method described in Formulation Example 1, and water is added thereto to prepare a diluted solution containing the test compound at a predetermined concentration. 30 last-instar larvae of Culex pipiens pallens are released into the diluted solution, and the state of the larvae of Culex pipiens is examined one day later to determine the Mortality. The mortality is calculated by the following equation. [formula]
# [6] = test system: Aphis gossypii; experiment: Test method 2: soil irrigation of cucumber seedlings, later inoculated with Aphis gossypii; settings: 144 h, irrigated 5 mL/seedling, inoculated after 7 days, surviving insects examined after 6 days, 25°C, read-out: control value
# Description: The test compound is formulated according to the method described in Formulation Example 5, and water is added thereto to prepare a diluted solution containing the test compound at a predetermined concentration. A cucumber (Cucumis sativus) seedling (second true leaf stage) planted in a container is irrigated with the diluted solution at a rate of 5 mL/seedling. After 7 days, the leaf surface of this seedling is inoculated with about 30 Aphis gossypii (whole stage). After 6 days, the number of surviving insects is examined, and the control value is determined by the following formula. [formula] • Characters in the formula represent the following meanings. • Cb: number of test insects in a non-treated section • Cai: number of surviving insects in a non-treated section at the time of investigation • Tb: number of test insects in a treated section • Tai: number of surviving insects in a treated section at the time of investigation Herein, the non-treated section means a section that is subjected to the same operation as that of the treated section except that the test compound is not used.
# [7] = test system: common cutworm (Spodoptera litura); experiment: Test method 3: sprayed cabbage foliage cut out, second instar larvae of common cutworm released; settings: foliar, 120 h, sprayed 20 mL/seedling, five second instar larvae, after 5 days, 25°C
# Description: as §2
# A cabbage (Brassicae oleracea) seedling (2 to 3 true leaf stage) planted in a container is sprayed with the diluted solution at a rate of 20 mL/seedling. Thereafter, the foliage portion of the seedling is cut out and placed in a container on which filter paper is laid. Thereto are released five second instar larvae of common cutworm (Spodoptera litura). After 5 days, the number of surviving insects is counted, and the mortality is determined from the following equation. [formula]
Compound,mortality at 500 ppm [1],mortality at 200 ppm [2],mortality at 50 ppm [3],mortality at 200 ppm [3],mortality at 500 ppm [4],mortality at 3.5 ppm [5],mortality at 50 ppm [2],mortality at 1000 ppm [6],mortality [1],mortality at 500 ppm [7]
CCSc1c(N(C)C(=O)c2cc(C(F)(F)F)nn2C)nc2ccc(I)cn12 [compound 3],≥ 90%,≥ 80%,≥ 90%,≥ 90%,≥ 80%,> 90%,–,–,–,–
CCSc1c(N(C)C(=O)c2ccc(C(F)(F)F)o2)nc2ccc(I)cn12 [compound 5],≥ 90%,–,≥ 90%,≥ 90%,≥ 80%,> 90%,–,–,–,–
CCSc1c(N(C)C(=O)c2cnc(C(F)(F)F)s2)nc2ccc(I)cn12 [compound 7],≥ 90%,≥ 80%,≥ 90%,≥ 90%,≥ 80%,> 90%,≥ 80%,≥ 90%,–,–
CCSc1c(N(C)C(=O)c2cnc(C(F)(F)F)s2)nc2ccc(Br)cn12 [compound 8],≥ 90%,–,≥ 90%,≥ 90%,≥ 80%,> 90%,–,–,–,–
CCSc1c(N(C)C(=O)c2cnc(C(F)(F)F)s2)nc2ccc(C(F)(F)F)cn12 [compound 9],≥ 90%,–,≥ 90%,≥ 90%,≥ 80%,> 90%,–,–,–,–
CCSc1c(N(C)C(=O)c2cnc(C(F)(F)F)s2)nc2cc(I)ccn12 [compound 10],≥ 90%,≥ 80%,≥ 90%,≥ 90%,≥ 80%,> 90%,–,–,–,–
CCSc1c(N(C)C(=O)c2cnc(C(F)(F)F)s2)nc2cc(Br)ccn12 [compound 11],≥ 90%,–,≥ 90%,≥ 90%,≥ 80%,> 90%,–,≥ 90%,–,–
CCSc1c(N(C)C(=O)c2nc(C(F)(F)F)cs2)nc2ccc(I)cn12 [compound 13],≥ 90%,–,–,≥ 90%,≥ 80%,> 90%,–,–,–,–
CCSc1c(N(C)C(=O)c2ccn(C(F)F)n2)nc2ccc(I)cn12 [compound 19],≥ 90%,–,≥ 90%,≥ 90%,–,> 90%,–,–,–,–
CCSc1c(N(C)C(=O)c2cnn(C(F)F)c2)nc2ccc(I)cn12 [compound 24],≥ 90%,–,–,≥ 90%,≥ 80%,> 90%,–,–,–,–
CCSc1c(N(C)C(=O)c2cn(CC(F)(F)F)nn2)nc2ccc(I)cn12 [compound 27],≥ 90%,≥ 80%,–,≥ 90%,–,> 90%,–,–,–,–
CCS(=O)(=O)c1c(N(C)C(=O)c2cc(C(F)(F)F)nn2C)nc2ccc(I)cn12 [compound 36],–,≥ 80%,≥ 90%,≥ 90%,–,–,≥ 80%,–,–,–
CCS(=O)(=O)c1c(N(C)C(=O)c2ccc(C(F)(F)F)o2)nc2ccc(I)cn12 [compound 39],≥ 90%,–,≥ 90%,≥ 90%,≥ 80%,> 90%,–,≥ 90%,–,–
CC[S+]([O-])c1c(N(C)C(=O)c2cnc(C(F)(F)F)s2)nc2ccc(Br)cn12 (stereo not shown) [compound 41],≥ 90%,≥ 80%,≥ 90%,≥ 90%,≥ 80%,–,–,≥ 90%,–,–
CCS(=O)(=O)c1c(N(C)C(=O)c2cnc(C(F)(F)F)s2)nc2ccc(Br)cn12 [compound 42],≥ 90%,≥ 80%,≥ 90%,≥ 90%,≥ 80%,> 90%,–,≥ 90%,–,–
CC[S+]([O-])c1c(N(C)C(=O)c2cnc(C(F)(F)F)s2)nc2ccc(C(F)(F)F)cn12 (stereo not shown) [compound 43],≥ 90%,≥ 80%,≥ 90%,≥ 90%,≥ 80%,–,–,≥ 90%,–,–
CCS(=O)(=O)c1c(N(C)C(=O)c2cnc(C(F)(F)F)s2)nc2ccc(C(F)(F)F)cn12 [compound 44],≥ 90%,≥ 80%,≥ 90%,≥ 90%,≥ 80%,> 90%,–,≥ 90%,–,–
CCS(=O)(=O)c1c(N(C)C(=O)c2cnc(C(F)(F)F)s2)nc2cc(I)ccn12 [compound 46],–,–,≥ 90%,≥ 90%,≥ 80%,> 90%,–,≥ 90%,≥ 90%,–
CC[S+]([O-])c1c(N(C)C(=O)c2cnc(C(F)(F)F)s2)nc2cc(Br)ccn12 (stereo not shown) [compound 47],≥ 90%,≥ 80%,≥ 90%,≥ 90%,≥ 80%,–,–,≥ 90%,–,–
CCS(=O)(=O)c1c(N(C)C(=O)c2cnc(C(F)(F)F)s2)nc2cc(Br)ccn12 [compound 48],≥ 90%,≥ 80%,≥ 90%,≥ 90%,≥ 80%,> 90%,–,–,–,≥ 80%
CCS(=O)(=O)c1c(N(C)C(=O)c2nc(C(F)(F)F)cs2)nc2ccc(I)cn12 [compound 50],–,–,–,–,≥ 80%,–,–,–,–,–
CCS(=O)(=O)c1c(N(C)C(=O)c2cc(Br)n(C)n2)nc2ccc(I)cn12 [compound 53],≥ 90%,–,≥ 90%,≥ 90%,≥ 80%,–,–,–,–,–
CCS(=O)(=O)c1c(N(C)C(=O)c2cc(OC(F)F)n(C)n2)nc2ccc(I)cn12 [compound 55],–,–,–,–,–,> 90%,–,–,–,–
CCS(=O)(=O)c1c(N(C)C(=O)c2ccn(C3CC3)n2)nc2ccc(I)cn12 [compound 57],≥ 90%,–,–,≥ 90%,≥ 80%,> 90%,–,–,–,–
CC[S+]([O-])c1c(N(C)C(=O)c2cnn(C(F)(F)F)c2)nc2ccc(I)cn12 (stereo not shown) [compound 60],≥ 90%,–,–,–,≥ 80%,–,–,–,–,–
CCS(=O)(=O)c1c(N(C)C(=O)c2cnn(C(F)(F)F)c2)nc2ccc(I)cn12 [compound 61],≥ 90%,–,–,–,≥ 80%,–,–,–,–,–
CCS(=O)(=O)c1c(N(C)C(=O)c2cnn(C(F)F)c2)nc2ccc(I)cn12 [compound 63],≥ 90%,–,–,–,≥ 80%,–,–,–,–,–
CCS(=O)(=O)c1c(N(C)C(=O)c2cnn(C3CC3)c2)nc2ccc(I)cn12 [compound 64],≥ 90%,–,–,–,≥ 80%,–,–,≥ 90%,–,–
CCS(=O)(=O)c1c(N(C)C(=O)c2cn(CC(F)(F)F)nn2)nc2ccc(I)cn12 [compound 67],≥ 90%,–,≥ 90%,≥ 90%,–,> 90%,–,≥ 90%,–,–
